For assay [1], the system named is NMU induced breast tumours. The assay can be described thus: N-nitroso-N-methylurea induced model of breast cancer in rats. The format is in vivo, rat. The settings on record: 25 mg/kg po daily 3 weeks then 12.5 mg/kg i.p. twice a week 5 weeks, comparable to tamoxifen. Here is the method: A standard protocol for induction of breast cancer in female Sprague-Dawley rats (7 to 8 weeks of age and weight range of 80-100 gms) with a single dose of N-nitroso-N-methylurea (NMU) was used for the study. The rats were obtained from animal facility, R & D center, The Himalaya Drug Company, Bangalore. They were maintained on standard pellet diet (Lipton India Ltd., Mumbai) and water ad libitum. Around 60 rats were selected and NMU was administered intraperitoneally at a dose of 50 mg/kg b.wt. NMU was dissolved in saline and pH adjusted to 4.8. Animals were observed daily to assess general health. […]
Three longest possible diameters were recorded, and tumour volume (cm^3) was calculated using the formula LX W X B.
The variations of the total surface areas of tumors between day 1 and day 57 were analyzed using a two-way ANOVA for repeated measurements. […]

Assay [2] concerns MCF-7. The assay can be described thus: Cell proliferation assay (trypan blue exclusion). It is filed as cell-based, human. The procedure:
(§1) For assaying the inhibitory effects of the samples on cell proliferation, cancer cells were seeded into a 96-well tissue culture plate at a cell density of 5×10^4 cells per well and incubated with plant extract at different concentrations for 24 hours in a humidified atmosphere containing 5% CO2 at 37° C. The viable and dead cell counts were performed as per trypan blue exclusion method and results were recorded.

The subject of the next assay is Colo-320 DM. The assay can be described thus: Cell proliferation assay (trypan blue exclusion). The format is cell-based, human. Here is the method: as §1
Another assay concerns MDA cells. The assay can be described thus: Cell proliferation assay (trypan blue exclusion). The format is cell-based, human. The procedure: as §1
Assay [3] deals with MCF-7. The assay can be described thus: Cell viability (MTT) assay. The format is cell-based, human. The procedure: The screening of samples was done in human breast cancer cells (MCF-7, MDA-MB-468, ZR-75-1 and SK-Br-3), human liver carcinoma cells (HepG2), human colon adinocacinoma cells (Colo320 D-M), human acute promylocytic leukemia cells (HL-60), mouse sarcoma cells (Sarcoma 180), mouse melanoma cells (C57/B1/6J). Cells were maintained in DMEM, RPMI 1640(colo320-D-M and HL-60) and Mecoy's medium (SKBr-3) supplemented with 10% Fetal Calf Serum (FCS) and antibiotics (100 IU/ml of penicillin and 100 μg/ml of streptomycin) till they achieved 80% confluence in a humidified atmosphere containing 5% CO2 at 37° C. The cultures were passaged upon confluence on a regular basis. […] Morphological changes in the cells were recorded
It was performed after removal of the culture supernatants; MTT assay was performed to assess the viability of cells. […] The plates were read on a micro plate reader using a reference wavelength of 690 nm and a test wavelength of 540 nm.
For calculation of IC50 value, the data were analyzed by no leaner regression (Curve Fit) analysis using Graph Pad Prism version 4.00. The results of cell proliferation and other parameters were analyzed by one-way ANOVA with Bonferroni's Multiple Comparison Test.

For another assay, the system named is cancer cells. The assay can be described thus: Cell proliferation assay, all the cell lines. It is filed as cell-based. The procedure:
as §1

The test system of the next assay is S-180 cells. The assay can be described thus: Sarcoma bearing mice. It is filed as in vivo, mouse. Here is the method:
Adult, male age-matched Swiss albino mice (29-34 g) housed in groups of four to five in plastic cages, received laboratory rodent chow and tap water ad libitum 14 days prior to experimentation in a temperature controlled room with a 12-h dark/light cycle. S-180 cells maintained in the peritoneal cavity of male mice were used for testing the antitumour activity. The cell suspension was diluted to 1.18×10^8 cells/ml, and 0.1 ml of the suspension was inoculated intra-peritoneally into the mice. The tumour-bearing mice were treated, 24 hrs after inoculation, by i.p. injections of 10 and 20 mg/kg of HAC-01 (2 mg/ml with vehicle in physiological saline solution) at the dosage of 0.05 and 0.1 ml/10 gm b.wt. of mouse every other day for 14 days (Total 7 injections). The control group was treated with vehicle in 0.9% NaCl. The mice b.wt. was recorded at 0,4,8, 11,16,18,20,22 and 24th day.
All data were presented as mean ±SD. Statistical significance was evaluated by t test. P<0.05 is considered as statistically significant.
White blood cell (WBC) and differential leukocyte counts were measured from freely flowing tail vein blood of normal control, sarcoma control and HAC-01 treated groups.

The target of another assay is T1, telomerase (Homo sapiens, UniProt O14746).
T1 construct: endogenous in cells; host or cells: MCF-7
T1 sequence (O14746 whole entry): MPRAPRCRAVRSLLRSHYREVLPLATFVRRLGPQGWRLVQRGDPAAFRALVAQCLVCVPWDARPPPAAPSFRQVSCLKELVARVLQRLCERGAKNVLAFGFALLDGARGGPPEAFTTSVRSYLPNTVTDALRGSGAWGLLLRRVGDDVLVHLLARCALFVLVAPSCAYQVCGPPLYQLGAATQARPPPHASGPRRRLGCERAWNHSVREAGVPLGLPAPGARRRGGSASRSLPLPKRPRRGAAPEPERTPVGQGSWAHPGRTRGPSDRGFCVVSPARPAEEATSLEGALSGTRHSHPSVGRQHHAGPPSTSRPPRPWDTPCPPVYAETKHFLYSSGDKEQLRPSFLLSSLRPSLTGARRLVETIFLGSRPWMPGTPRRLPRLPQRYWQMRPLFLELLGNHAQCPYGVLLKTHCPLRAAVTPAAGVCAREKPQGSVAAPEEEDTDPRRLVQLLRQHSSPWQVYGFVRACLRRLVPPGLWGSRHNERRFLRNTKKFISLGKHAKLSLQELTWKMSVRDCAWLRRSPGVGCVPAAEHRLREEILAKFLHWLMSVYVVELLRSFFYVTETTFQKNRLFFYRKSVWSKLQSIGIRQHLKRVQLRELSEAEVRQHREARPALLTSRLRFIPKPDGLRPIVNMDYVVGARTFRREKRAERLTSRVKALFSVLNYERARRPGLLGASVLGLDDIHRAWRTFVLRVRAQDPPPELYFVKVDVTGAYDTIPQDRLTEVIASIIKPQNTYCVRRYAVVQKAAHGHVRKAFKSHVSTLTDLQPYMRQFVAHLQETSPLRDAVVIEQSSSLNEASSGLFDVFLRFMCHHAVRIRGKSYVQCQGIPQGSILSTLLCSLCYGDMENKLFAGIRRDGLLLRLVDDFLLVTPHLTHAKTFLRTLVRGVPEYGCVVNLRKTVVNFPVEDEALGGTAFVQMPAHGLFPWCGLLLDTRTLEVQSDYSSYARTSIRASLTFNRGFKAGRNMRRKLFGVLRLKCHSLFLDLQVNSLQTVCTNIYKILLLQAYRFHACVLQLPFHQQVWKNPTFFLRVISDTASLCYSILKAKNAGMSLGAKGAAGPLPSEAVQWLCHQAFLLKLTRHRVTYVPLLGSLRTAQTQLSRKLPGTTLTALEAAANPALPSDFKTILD
The assay can be described thus: Telo TAGGG Telomerase PCR ELISA. It is filed as cell-based. Conditions: MCF-7; 6.25 μg/ml; 48 and 72 hours. The procedure:
In the present study the telomerase activity of the cancer cell were assessed following the treatment with the samples with the help of Telomerase PCR ELISA (Roche, Germany). Cells were plated in a 24 well plate (2×10^5 cells per well) in DMEM supplemented with FBS (10%) and incubated for 48 hours and 72 hours in a humidified atmosphere with 95% air and 5% CO2 at 37° C. with (6.25 μg/ml) or with out (Control) the samples. Cells of the positive control group were treated with paclitaxel at 1.75 μg/ml and incubated as above. This experiment was done in human breast cancer cells (MCF-7). The cell pellets were washed with PBS and resuspended in lysis solution (200 μl) and the debris was pelleted and the supernatant was transferred to a fresh tube. The Telo TAGGG Telomerase PCR ELISA (Roche) was carried as per the manufacturer's protocol. The samples were added to a PCR amplification tube containing reaction mixture (Tris Buffer with telomerase substrate, nucleotides, Taq polymersase biotin labeled primer 1 and primer 2 specific to telomere fragment) and nuclease free water and allowed for elongation for 33 cycles in a Thermal Cycler (MJ Research, PTC 100). […] The reaction was stopped with the help of 1N H2SO4 and was read in an ELISA plate reader at a test wavelength of 450 nm and reference wavelength of 690 nm.

The next assay deals with MCF-7 cells. The assay can be described thus: Assay for influence of estrogen. Conditions: with or without estradiol, 24 h. The format is cell-based, human. Here is the method: The efficacy of HAC-1 was studied to assess the hormone dependent or independent activity on cell proliferation. For this purpose MCF-7 cells were initially seeded in a 24 well plate with DMEM supplemented with 10% FCS and incubated for 24 hours in a humidified atmosphere with 5% CO2 and 95% air at 37° C. The cells were then shifted to charcoal striped medium supplemented with 1% bovine albumin serum (BSA,) with or with out the estradiol and HAC-1 and incubated further for a period of 24 h. After the incubation the cell population in each of the groups was recoded by trypan blue exclusion method.

Assay [4] deals with MCF-7. The assay can be described thus: DNA integrity assay (acredine orange, fluorescent microscope). It is filed as cell-based, human. The settings on record: end of 48 h of incubation. Here is the method:
It was observed by direct visualization under fluorescent microscope. The cell pellets were treated with acredine orange (t 1:10 dilution) and directly visualized under fluorescent microscope under UV spectrum and the changes in the DNA were documented.

The test system of the next assay is HL-60 cells. The assay can be described thus: Genomic DNA extraction / DNA fragmentation. It is filed as cell-based, human. Conditions: 7 ug/ml, 48 h. The procedure: For assessing the extent of damage to the cellular DNA following the HAC-1 treatment, the cells under investigation were seeded in 25 cm^2 tissue culture flasks at a cell density of 1×10^6 cells per flask and incubated for different time points in a humidified atmosphere containing 5% CO2 at 37° C. The cells after incubation with samples at 7 μg/ml for 24, 48 and 72 hours were pelleted, The cell pelleted were washed with the PBS and incubated in a shaking hot water bath at 37 C. for 1-2 hours with lysis buffer for mammalian DNA extraction. The lysate was then treated with 1.5 volumes of Isopropyl alcohol and the DNA pelleted by centrifuging at […] for 20 minutes The DNA was dissolved in Tris EDTA (TE pH 8.00) and was run on 2% agarose and the visualized with the help of a gel documentation system (Pharmacia) and recorded.

Molecules are shown by their SMILES. In brackets after ≈: the same amount, converted by molar mass.

Consider `CC1=C2C3OC(=O)C(C)C3(O)CCC2(C)CCC1` (stereo not shown) [HAC-1, 7-hydroxyeudesm-4-en-6,12-olide], for which the tumor volume result in assay [1] is on record as “significantly reduced the tumor volume”. For the same compound, the “effective concentration to induce 50% inhibition of proliferation” value turned out to be 4 µg/mL in the assay with MCF-7 [2], 2 µg/mL with Colo-320 DM and 2 µg/mL with MDA cells. In the assay on MCF-7 [3], this compound returned a 50% inhibitory concentration (IC50) of 1.62 µg/mL (≈ 6.47 µM). Besides, the “cell proliferation compared to control” value in the assay with cancer cells (all the cell lines, p<0.001 and p<0.01) is listed as “significantly inhibited”. In addition, the “differential count of WBC (neutrophils, lymphocytes)” value in the assay on S-180 cells (sarcoma bearing mice, 20 mg/kg, i.p.) is recorded as “restore these altered parameters to near normal”. Moreover, in the assay with S-180 cells (tumour bearing mice, i.p. 10 and 20 mg/kg every other day for 14 days), the weight gain result is on record as “significantly reduced the weight gain”. Moreover, the “telomerase activity compared to control” value at telomerase was “inhibition in the telomarase activity”. For the same compound, the “influence of estrogen on drug activity” value in the assay on MCF-7 cells is on record as “drug activity is independent of estrogen”. The “cells found apoptosed completely” value in the assay with MCF-7 [4] is given as “more than 80%”. Besides, the “apoptosis (DNA pattern)” value in the assay with HL-60 cells is listed as “induced apoptosis”.

As to `CC(=O)O[C@H]1C(=O)[C@@]2(C)[C@H]([C@H](OC(=O)c3ccccc3)[C@]3(O)C[C@H](OC(=O)[C@H](O)[C@@H](NC(=O)c4ccccc4)c4ccccc4)C(C)=C1C3(C)C)[C@]1(OC(C)=O)CO[C@@H]1C[C@@H]2O` [paclitaxel, reference compound], the growth inhibition entry in the assay with cancer cells (at 1.75 μg/ml) is given as “marked growth inhibition”.

These data come from patent US20080199550A1, “Novel Anticancer Agent, Methods for Obtaining the Same and Pharmaceutical Compositions Thereof” (priority 2005, published 2008).
